Assay results as given in patent US8158589B2, “Peptides with the capacity to bind to transforming growth factor β1 (TGF-β1)” (Proyecto Biomedicine Cima, S.L., priority 2003, dated 2012).
Ends that are not written are not given here.

Experiments:
TGF-β1 [1] = target: T1, TGF-β1 (Rattus norvegicus, UniProt P17246); test: Corneal fibrosis and haze after 1 N NaOH damage, topical eye drops, photographs analysed with ImageJ; assay type: in vivo, Long-Evans rats; settings: fifth formulation eye drops, treated right eye vs control left eye
T1 construct: from tissue; host or cells: cornea of Long-Evans rats
From the text: Male Long-Evans rats aged 10 weeks were used, divided into 5 groups: • Group 1: 12 rats, 6 treated with dexamethasone and 6 treated with mitomycin C • Group 2: 12 rats, 6 treated with p17 of the first formulation (see section 6.1.2.b) and 6 treated with p144 of the first formulation (see section 6.1.2.b) • Group 3: 12 rats, 6 treated with p17 of the second formulation (see section 6.1.2.b) and 6 treated with p144 of the second formulation (see section 6.1.2.b) • Group 4: 12 rats, 6 treated with p17 of the third formulation (see section 6.1.2.b) and 6 treated with p144 of the third formulation (see section 6.1.2.b) • Group 5: 12 rats, 6 treated with p17 of the fourth formulation (see section 6.1.2.b) and 6 treated with p144 of the fourth formulation (see section 6.1.2.b) • Group 6: 12 rats, 6 treated with p17 of the fifth formulation (see section 6.1.2.b) and 6 treated with p144 of the fifth formulation (see section 6.1.2.b)
To perform the damage in the cornea, the animals were anesthetized with isoflurane and a 5 mm Whatman paper disc impregnated in 1 N NaOH for 30 seconds was applied to them in the central part of the eye. After the damage, they were washed with abundant physiological saline serum and an antibiotic ointment was applied to them to prevent possible infections in the affected area.
After conducting several in vivo studies with the previously described groups of animals, it could be concluded that the chemical damage occurring after the application of NaOH for 30 seconds caused an excessive lesion for the study which was to be conducted, therefore it was decided to conduct new experiments reducing the time to 15 seconds.
It was randomly established that the left eye of each animal would act as a control and that the right eye would be the treated eye, such that the same animals acts as a control in addition to being treated. It must be pointed out that all the animals received antibiotic treatment in both eyes daily only during the first week of the study for the purposes of avoiding microbial keratitis.
Starting from 0.15% sodium hyaluronate (Hyabak 10 mL, Thea) without preservatives: • p144: 20 mg were dissolved in 5 ml of eye drops, 40 μl of saturated concentrated NaOH were incorporated, stirring and adding in portions of 5 μl. It was sonicated until solubilization. To adjust the pH, 500 μl of 1M Hepes were added, such that the pH changed from 10.5 to 7 • p144 control: 40 μl of saturated NaOH and 500 μl of 1 M HEPES (final concentration of HEPES 50 mM) • p17: 20 mg were dissolved in 5 ml of the eye drops, it was sonicated until complete solubilization and it was incorporated to the vial with a 10 ml syringe and a blue needle to perforate the filter of the contained (final concentration 2 mg/ml) • p17 control: non-manipulated eye drops • Note: The formulations were maintained at 4° C. throughout the study.
The administration of the treatment was initiated twenty-four hours after the damage. After that time a follow-up of the damage was performed, which consisted of taking photographs at days 0, 7, 14, 21, 28 and 35. To take the photographs the animals were anesthetized with isoflurane. Photographs were taken of both the control eye (left) and of the treated eye (right) with and without fluorescein. The photographs with fluorescein allowed to observe the evolution of the epithelial closure of the generated lesion, whereas the photographs without fluorescein show the evolution of the haze of the lesioned area. […]

TGF-β1 [2] = target: TGF-β1 (Homo sapiens, UniProt P01137); test: α-SMA expression induced by TGF-β1 in IMR-90 lung fibroblasts, western blot; assay type: cell-based; design: purchased R&D Systems; host or cells: added to IMR-90 human lung fibroblasts; settings: IMR-90 cells, 5 ng/ml TGF-β1, peptide 100 μg/ml, 24 hours
Experimental: IMR-90 human lung fibroblasts (ATCC, Manassas, Va.) were cultured in EMEM medium (Cambrex, Belgium) supplemented with 10% fetal bovine serum (FBS), 1 mM sodium pyruvate, 0.1 mM nonessential amino acids, 100 U/ml penicillin and 100 μg/ml streptomycin (Gibco BRL, UK). For experiments, 6×10^4 cells/well were cultured in 6-well plates in 2 ml of medium and when they were 80% confluent, medium was replaced with serum-free EMEM for 48 h to induce quiescence. TGF-β1 (5 ng/ml) and P17 (100 μg/ml) were co-incubated for 90 min at 37° C. to allow binding of both molecules before addition to cell cultures. Quiescent cells were then stimulated with TGF-β1 and/or P17 for up to 6 or 24 h. After these incubation periods, fibroblasts were harvested for gene and protein analysis, respectively.
To assess alpha-Smooth Muscle Actin (αSMA) expression, IMR-90 fibroblasts were lysed with RIPA buffer containing 10 U/ml leupeptin, 10 U/ml pepstatin, 1 mM phenylmethanesulfonylfluoride (PMSF), 1 mM Na3VO4 and 1 mM NaF. […] Membranes were analyzed for expression of αSMA protein using anti-αSMA monoclonal antibody (Sigma-Aldrich) at a dilution of 1:2000 and horseradish peroxidase-labeled anti-mouse IgG (Sigma-Aldrich). Expression of actin was detected using anti-actin monoclonal antibody (Sigma-Aldrich) (1:2000 dilution) and horseradish peroxidase-labeled anti-rabbit IgG (Sigma-Aldrich). […]

T1 sequence (P17246 279-390 limits assumed): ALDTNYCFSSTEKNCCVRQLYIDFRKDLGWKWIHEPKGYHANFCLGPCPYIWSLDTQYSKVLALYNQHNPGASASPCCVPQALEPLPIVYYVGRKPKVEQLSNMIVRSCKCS
Sequence of TGF-β1 (Homo sapiens, UniProt P01137) (P01137 279-390 limits assumed): as the sequence (P17246 279-390 limits assumed) above, with S75A counted along it

## KRIWFIPRSSWYERA [SEQ ID NO: 17, KRIWFIPRSSWYERA]
TGF-β1 [1]
  corneal haze: clear decrease
  epithelial closure (fluorescein): clear decrease
TGF-β1 [2]
  α-SMA expression induced by TGF-β1: inhibited
